# Laboratory results: patent US10065984B2, “Polymorphic forms of a steroid-like compound and methods for the preparation and use thereof” (Allergan, Inc., priority 2013, dated 2018)
# Assays:
# [1] = Conversion of substantially amorphous material to crystalline Form 1 at elevated temperature and/or humidity; type: physicochemical
# From the text: In certain embodiments, a substantially amorphous form of the steroid-like compound contemplated for use herein can be converted into crystalline Form 1 by subjecting said amorphous material to elevated temperatures and/or elevated humidity sufficient to promote the desired conversion.
# As used herein, “substantial portion thereof” refers to the major portion of the sample in question, i.e., greater than 50% of the sample, undergoes conversion from the amorphous form thereof to crystalline Form 1; in some embodiments, greater than 60% of the sample undergoes conversion from the amorphous form thereof to crystalline Form 1; in some embodiments, greater than 70% of the sample undergoes conversion from the amorphous form thereof to crystalline Form 1; in some embodiments, greater than 80% of the sample undergoes conversion from the amorphous form thereof to crystalline Form 1; in some embodiments, greater than 90% of the sample undergoes conversion from the amorphous form thereof to crystalline Form 1.
# [2] = Storage stability of crystalline Form 1, XRPD spectrum before and after storage; type: physicochemical
# Method: X-Ray Powder Diffraction patterns were collected on a Bruker D8 diffractometer using Cu Kα radiation (40 kV, 40 mA), θ-2θ goniometer, and divergence of V4 and receiving slits, a Ge monochromator and a Lynxeye detector. Samples were run under ambient conditions as flat plate specimens. The sample was gently packed into a cavity cut into polished, zero-background (510) silicon wafer. The parameters of the data collection are: • Angular range: 2 to 42°2θ • Step size: 0.05°2θ • Collection time: 0.5 s/step
# A sample of the steroid-like compound in crystalline Form 1 was stored for 7 days at 40° C. and 75% relative humidity. After that time an XRPD spectrum was obtained and compared to the XRPD spectrum of the sample before the storage at the elevated temperature and humidity. […] Similarly, another sample of the steroid-like compound in crystalline Form 1 was stored for 1 year at room temperature (21° C. and uncontrolled relative humidity).
SMILES,solid form conversion on exposure ([1]; 75% relative humidity at about 40° C. for about 1 week),solid form conversion on exposure ([1]; 97% relative humidity at room temperature (about 25° C.) for about 2 weeks),solid form conversion on exposure ([1]; temperature higher than about 110° C. for at least about 1 hour),change in the XRPD spectrum after storage ([2]; stored for 1 year at room temperature (21° C. and uncontrolled relative humidity)),change in the XRPD spectrum after storage ([2]; stored for 7 days at 40° C. and 75% relative humidity)
C[C@]12CCC(=O)C=C1CC[C@@H]1[C@@H]2[C@@H](O)C[C@@]2(C)[C@H]1CC[C@]2(OC(=O)c1ccccc1)C(=O)CO [substantially amorphous form],conversion of a substantial portion thereof to crystalline Form 1,conversion of a substantial portion thereof to crystalline Form 1,conversion of a substantial portion thereof to crystalline Form 1,–,–
C[C@]12CCC(=O)C=C1CC[C@@H]1[C@@H]2[C@@H](O)C[C@@]2(C)[C@H]1CC[C@]2(OC(=O)c1ccccc1)C(=O)CO [crystalline Form 1],–,–,–,no change,No noticeable change
